Results published in paper PMC7732128, “Regulation of gene transcription by thyroid hormone receptor β agonists in clinical development for the treatment of non-alcoholic steatohepatitis (NASH)” (PLoS ONE, 2020).

Experiments:
[1] = tested on: THR (liver Cpt1a, Dio1, Me1, Thrsp RNA); test: High-fat diet fed rat study: liver gene expression; assay type: in vivo; settings: HFD rats
Protocol: Eighty-four male Sprague Dawley rats, approximately 8 to 11 weeks of age, were fed with either a normal diet, ND (D12450K: 10 kcal% fat, no sucrose), or high-fat diet, HFD (D12109C: 40 kcal% fat, 1.25 gm% cholesterol, 0.5 gm% sodium cholate, 12.5 gm% sucrose). After 12 days of diet consumption, baseline serum total cholesterol and low-density lipoprotein cholesterol (LDL-C) levels were measured with the cobas 6000 c501 Chemistry Analyzer (Roche) to confirm hypercholesterolemia in the HFD fed rats. Animals were then randomized into treatment groups.
Serum total cholesterol and LDL-C levels were determined as described above. […] Caudate lobes of the liver were used for analysis of hepatic total cholesterol (Abcam, ab65390) and triglyceride levels (Abcam, ab65336) via enzyme-linked immunosorbent assay. Right lateral lobes were stored in RNAlater (Invitrogen, AM7020) at -70°C until homogenization with the Scientz-48 TissueLyser LT for downstream gene expression analysis. RNA extraction was performed at WuXi AppTec (Hong Kong) Limited (China) with the RNeasy Mini Kit (Qiagen, 74106) and RNA concentration and quality was determined using the Nanodrop 2000 (Thermo Scientific); additional quality control was assessed with agarose gel electrophoresis. One μg total RNA from each sample was then reverse-transcribed using the High Capacity cDNA Reverse Transcription kit (Applied Biosystems, 4368814) and the resulting cDNA was diluted 1:5 with nuclease-free, distilled water. Gene expression was measured using TaqMan Fast Advanced Master Mix and the following TaqMan Gene Expression assays: Actb (Rn00667869_m1), Cpt1a (Rn00580702_m1), Dio1 (Rn00572183_m1), Me1 (Rn00561502_m1), Rplp1 (Rn03467157_gH), and Thrsp (Rn01511034_m1). Actb and Rplp1 served as control housekeeping genes. Ten μL reactions were run on the qTOWER³ 84. Relative quantification (RQ) of gene expression was calculated via the 2^−ΔΔCt method and statistical analysis was performed in GraphPad Prism 8.0 and Microsoft Excel.

THRβ (α:β) = tested on: THRβ (α:β); parameters: method as in PMID 32768645; settings: coactivator recruitment assay; cited from earlier work
[2] = 4 hrs after 5.0 or 1.5 mg/kg, vs vehicle

| Structure (SMILES) | liver Cpt1a, Dio1 and Thrsp RNA levels [1, 2] | liver Me1 RNA level [1, 2] | increases in liver Cpt1a and Thrsp RNA levels ([1]; 24 hrs after 5.0 or 1.5 mg/kg) | liver Dio1 and Me1 transcription ([1]; 24 hrs after 5.0 or 1.5 mg/kg, vs vehicle) | increase in liver Dio1 expression between doses ([1]; between 1.5 and 5 mg/kg) [fold] | selectivity for THRβ (α:β) (THRβ (α:β)) |
| --- | --- | --- | --- | --- | --- | --- |
| CC(C)c1cc(Oc2c(Cl)cc(-n3nc(C#N)c(=O)[nH]c3=O)cc2Cl)n[nH]c1=O [MGL-3196, 2-[3,5-dichloro-4-(5-isopropyl-6-oxo-1,6-dihydropyridazin-3-yloxy)phenyl]-3,5-dioxo-2,3,4,5-tetrahydro[1,2,4]triazine-6-carbonitrile] | activated the transcription of Cpt1a, Dio1, and Thrsp in a dose-dependent manner | no significant increase | dampened | significantly increased | 1.3 | – |
| Cc1cc(OCP(=O)(O)O)cc(C)c1Cc1ccc(O)c(C(C)C)c1 [VK2809A] | – | – | – | – | – | 2.1 |
